Measurements taken from PMC10254306, “Piplartine-Inspired 3,4,5-Trimethoxycinnamates: Trypanocidal, Mechanism of Action, and In Silico Evaluation” (Molecules, 2023).
Where “and” joins values, the source holds several entries; their conditions need not be identical. Equal values may be shown once. Read-outs that look alike come from different tables or passages of the source.

How the values were obtained:
[1] = parameters: method as in PMID 25922266; conditions: rat plasma; cited from earlier work
[2] = test system: epimastigote forms of T. cruzi, Y strain; test: Trypanocidal activity on epimastigote forms (growth inhibition, Neubauer chamber count); format: cell-based, Trypanosoma cruzi; conditions: for IC50: Trypanosoma cruzi; for Selectivity Index (SI) Epimastigote: ratio CC50 (LLC-MK2) / IC50 epimastigote
Method: (§1) Initially, the prepared esters were submitted to in vitro tests using the microdilution technique in 96-well plates to evaluate the trypanocidal activity against the epimastigote evolutionary form at different concentrations (200–3.12 μg/mL). Then, the compounds with the best activity were tested against the trypomastigote form of T. cruzi. In both assays, IC50 values were calculated; a compound is considered to have trypanocidal activity when IC50 <40 μM [21]. The results are expressed in Table 1.
Initially, epimastigotes were cultured and distributed in 96-well plates at a density of 10^6 cells/mL in liver infusion tryptose medium supplemented with 10% fetal bovine serum (FBS) and 1% antibiotic. Then, the cells were treated with piplartine analogues at different concentrations and incubated at 28 °C for 24 h. To quantify the growth inhibition of the parasites, a Neubauer chamber was used, and the IC50 was defined.

[3] = test system: trypomastigote forms of T. cruzi, Y strain; test: Trypanocidal activity on trypomastigote forms (viability by counting); format: cell-based, Trypanosoma cruzi; conditions: for IC50: Trypanosoma cruzi, Y strain, 24 h; for Selectivity Index (SI) Trypomastigote: ratio CC50 (LLC-MK2) / IC50 trypomastigote
Method: as §1
Trypomastigote forms were obtained by infecting LLC-MK2 cells with the parasite; in this way, the cells were incubated for 24 h in T-25/75 cm^2 flasks at 37 °C in an atmosphere with 5% CO2 in DMEM medium supplemented with 2% FBS and 1% antibiotic. Subsequently, the trypomastigote forms were distributed in 96-well plates treated with piplartine analogues at different concentrations (200; 100; 50; 25; 12.5; 6.25; 3.12 μg/mL) and incubated at 37 °C for 24 h. The assessment of cell viability was performed by counting, and the IC50 was defined.

[4] = test system: epimastigote forms of T. cruzi; parameters: method as in doi:10.1007/s00044-008-9161-9; conditions: read-out: IC50 growth of epimastigote forms; cited from earlier work
[5] = In vitro cytotoxicity, MTT assay; format: cell-based, Rhesus monkey; conditions: Rhesus monkey, MTT, 24 h, read-out: LLCK-MK2 CC50
Method: The compounds were considered selective for the parasite when SI ≥ 10 [21]. The results are expressed in Table 2.
For the cytotoxicity analysis, the (3-[4,5-dimethylthiazol-2-yl]-2,5 diphenyl tetrazolium bromide) (MTT) assay was used, in which the LLC-MK2 cells were cultured in Dulbecco’s Modified Eagle Medium (DMEM), then exposed to the piplartine analogues at different concentrations (25–200 μg/mL) and incubated for 24 h at 37 °C. Then MTT was added, and the cells were incubated for 4 h, after which 10% sodium dodecyl sulfate was added. […] To calculate the relative cell viability, cells treated only with sterile phosphate-buffered saline were used as a negative control. The experiments were conducted in triplicates.

[6] = test system: amastigote form of the parasite; parameters: method as in PMID 25880257; conditions: cited from earlier work
[7] = test system: epimastigote form of T. cruzi; parameters: method as in PMID 31775321; conditions: cited from earlier work

Row | Structure (SMILES) | IC50 ([2]; Y strain, 24 h) | Selectivity Index (SI) Epimastigote [2] | CC50 at 24 h [5] | CC50 at 24 h ([5]; LLC-MK2 renal epithelial cells) | further results
1 | COc1cc(C=CC(=O)O)cc(OC)c1OC [3,4,5-trimethoxycinnamic acid] |  |  |  |  | bioavailability [1]: high bioavailability; oral absorption [1]: rapid oral absorption
2 | O=C(Cn1ccnc1[N+](=O)[O-])NCc1ccccc1 [Benznidazole, reference compound] | 23 µg/mL and 115 µM |  |  |  | IC50 [3]: 32.3 µg/mL and 161 µM; IC50 [4]: 42.7 µM
3 | COC(=O)/C=C/c1cc(OC)c(OC)c(OC)c1 [Compound 1, (E)-Methyl 3-(3,4,5-trimethoxyphenyl)acrylate] | 31.5 µg/mL and 125 µM | 4.01 | 126 µg/mL and 501 µM |  | 
4 | CCOC(=O)/C=C/c1cc(OC)c(OC)c(OC)c1 [Compound 2] | 85.7 µg/mL and 322 µM | >2.3 | > 200 µg/mL and > 751 µM |  | 
5 | CCCOC(=O)/C=C/c1cc(OC)c(OC)c(OC)c1 [Compound 3] | 90.1 µg/mL and 321 µM | 1.6 | 148 µg/mL and 526 µM |  | 
6 | COc1cc(/C=C/C(=O)OC(C)C)cc(OC)c1OC [Compound 4] | 74.5 µg/mL and 266 µM | >2.7 | > 200 µg/mL and > 714 µM |  | 
7 | CCCCCOC(=O)/C=C/c1cc(OC)c(OC)c(OC)c1 [Compound 5] | 20.2 µg/mL and 65.5 µM | >9.9 | > 200 µg/mL and > 649 µM |  | 
8 | CCCCCCCCCCOC(=O)/C=C/c1cc(OC)c(OC)c(OC)c1 [Compound 6] |  |  | > 200 µg/mL and > 528 µM |  | trypanocidal activity against epimastigote form (in words) ([2]; Y strain): suppressed the trypanocidal activity; Epimastigote IC50 ([2]; Y strain, 24 h): n*
9 | COc1ccc(COC(=O)/C=C/c2cc(OC)c(OC)c(OC)c2)cc1 [Compound 7] | 56.4 µg/mL and 157 µM | 3.5 |  | 196 µg/mL and 547 µM | 
10 | COc1cccc(COC(=O)/C=C/c2cc(OC)c(OC)c(OC)c2)c1 [Compound 8] | 40.3 µg/mL and 112 µM | 2.5 |  | 100 µg/mL and 280 µM | IC50 [3]: 64.4 µg/mL and 180 µM; Selectivity Index (SI) Trypomastigote [3]: 1.6
11 | COc1cc(/C=C/C(=O)OCc2ccc(C)cc2)cc(OC)c1OC [Compound 9] | 61.8 µg/mL and 180 µM | 3.0 |  | 183 µg/mL and 534 µM | IC50 [3]: 39.9 µg/mL and 123 µM; Selectivity Index (SI) Trypomastigote [3]: 4.6
12 | COc1cc(/C=C/C(=O)OCc2ccccc2)cc(OC)c1OC [Compound 10] | 40 µg/mL and 122 µM | 4.6 |  | 183 µg/mL and 557 µM | IC50 [3]: 13.4 µg/mL and 40.8 µM; Selectivity Index (SI) Trypomastigote [3]: 13.7
13 | C=C(C)[C@@H]1CC=C(COC(=O)/C=C/c2cc(OC)c(OC)c(OC)c2)CC1 [Compound 12] | 70.1 µg/mL and 188 µM | 1.5 |  | 106 µg/mL and 284 µM | IC50 [3]: 38.7 µg/mL and 104 µM; Selectivity Index (SI) Trypomastigote [3]: 2.7
14 | COc1cc(C=CC(=O)OC2CC3CCC2(C)C3(C)C)cc(OC)c1OC (stereo not shown) [Compound 13] | 155 µg/mL and 414 µM | 0.5 |  | 71.2 µg/mL and 190 µM | 
15 | CCOC(=O)/C=C/c1ccc(O)c(O)c1 [ethyl caffeate] |  |  |  |  | IC50 [6]: 18.3 µM
16 | COC(=O)/C=C/c1ccc(O)cc1 [methyl p-coumarate] |  |  |  |  | IC50 [7]: 601 µM
17 | COc1cc(/C=C/C(=O)N2CCC=CC2=O)cc(OC)c1OC [piplartine] |  |  |  |  | IC50 [4]: 21 µM
